Laboratory results reported in ChEMBL document CHEMBL5543097, “Synthesis and structure-activity relationships of novel 14-membered 2-fluoro ketolides with structural modification at the C11 position” (Eur J Med Chem, 2024).
Values after ≈ are worked out from the molar mass of the structure shown. Active and inactive are the calls of the source. The rule behind the calls is not given here.

Legend:
Streptococcus pyogenes = assay: Antibacterial activity against erythromycin-resistant Streptococcus pyogenes ATCC 19615 assessed as inhibition of visible bacterial growth incubated for 18 hrs by broth microdilution method; format: functional
Streptococcus agalactiae [1] = assay: Antibacterial activity against erythromycin-resistant Streptococcus agalactiae 19-9 assessed as inhibition of visible bacterial growth incubated for 18 hrs by broth microdilution method; format: functional
Streptococcus agalactiae [2] = assay: Antibacterial activity against erythromycin-resistant Streptococcus agalactiae 19-8 assessed as inhibition of visible bacterial growth incubated for 18 hrs by broth microdilution method; format: functional
Streptococcus pneumoniae [3] = assay: Antibacterial activity against erythromycin-resistant Streptococcus pneumoniae SPN19-14 assessed as inhibition of visible bacterial growth incubated for 18 hrs by broth microdilution method; format: functional
Streptococcus pneumoniae [4] = assay: Antibacterial activity against erythromycin-resistant Streptococcus pneumoniae SPN19-13 assessed as inhibition of visible bacterial growth incubated for 18 hrs by broth microdilution method; format: functional
Streptococcus pneumoniae [5] = assay: Antibacterial activity against erythromycin-resistant Streptococcus pneumoniae SPN19-8 assessed as inhibition of visible bacterial growth incubated for 18 hrs by broth microdilution method; format: functional
[6] = test system: Staphylococcus epidermidis; assay: Antibacterial activity against erythromycin-resistant Staphylococcus epidermidis 19-11 assessed as inhibition of visible bacterial growth incubated for 18 hrs by broth microdilution method; format: functional
[7] = test system: Staphylococcus epidermidis; assay: Antibacterial activity against erythromycin-resistant Staphylococcus epidermidis 19-9 assessed as inhibition of visible bacterial growth incubated for 18 hrs by broth microdilution method; format: functional
[8] = test system: Staphylococcus epidermidis; assay: Antibacterial activity against erythromycin-resistant Staphylococcus epidermidis 19-8 assessed as inhibition of visible bacterial growth incubated for 18 hrs by broth microdilution method; format: functional
[9] = test system: Staphylococcus epidermidis; assay: Antibacterial activity against erythromycin-resistant Staphylococcus epidermidis 19-6 assessed as inhibition of visible bacterial growth incubated for 18 hrs by broth microdilution method; format: functional
[10] = test system: Staphylococcus epidermidis; assay: Antibacterial activity against erythromycin-resistant Staphylococcus epidermidis 19-4 assessed as inhibition of visible bacterial growth incubated for 18 hrs by broth microdilution method; format: functional
[11] = test system: Staphylococcus epidermidis; assay: Antibacterial activity against erythromycin-resistant Staphylococcus epidermidis 19-5 assessed as inhibition of visible bacterial growth incubated for 18 hrs by broth microdilution method; format: functional
Moraxella catarrhalis [12] = assay: Antibacterial activity against Moraxella catarrhalis BCA 19-5 assessed as inhibition of bacterial growth incubated for 24 hrs by CLSI based broth microdilution method; format: functional; settings: Moraxella catarrhalis, BCA 19-5, 24 h, read-out: MIC
Moraxella catarrhalis [13] = assay: Antibacterial activity against Moraxella catarrhalis BCA 19-6 assessed as inhibition of bacterial growth incubated for 24 hrs by CLSI based broth microdilution method; format: functional; settings: Moraxella catarrhalis, BCA 19-6, 24 h, read-out: MIC
Moraxella catarrhalis [14] = assay: Antibacterial activity against Moraxella catarrhalis BCA 19-31 assessed as inhibition of bacterial growth incubated for 24 hrs by CLSI based broth microdilution method; format: functional; settings: BCA 19-31, 24 h
Haemophilus influenzae [15] = assay: Antibacterial activity against Haemophilus influenzae HIN 19-15 assessed as inhibition of bacterial growth incubated for 20 to 24 hrs by CLSI based broth microdilution method; format: functional; settings: time 20-24 hrs
Haemophilus influenzae [16] = assay: Antibacterial activity against Haemophilus influenzae HIN 19-18 assessed as inhibition of bacterial growth incubated for 20 to 24 hrs by CLSI based broth microdilution method; format: functional; settings: HIN 19-18, time 20-24 hrs
Escherichia coli = assay: Antibacterial activity against Escherichia coli ATCC 35218 assessed as inhibition of visible bacterial growth; format: functional, organism-based
[17] = Cytotoxicity against mouse AML12 cells assessed as reduction in cell viability incubated for 48 hrs by MTT assay; format: toxicity, cell-based
Streptococcus pneumoniae [18] = assay: Potency index, ratio of telithromycin MIC to test compound MIC for antibacterial activity against Streptococcus pneumoniae SPN19-13 assessed as inhibition of visible bacterial growth incubated for 18 hrs by broth microdilution method; format: functional
Streptococcus pneumoniae [19] = assay: Potency index, ratio of telithromycin MIC to test compound MIC for antibacterial activity against Streptococcus pneumoniae SPN19-8 assessed as inhibition of visible bacterial growth incubated for 18 hrs by broth microdilution method; format: functional
[20] = test system: Staphylococcus epidermidis; assay: Potency index, ratio of telithromycin MIC to test compound MIC for antibacterial activity against erythromycin-resistant Staphylococcus epidermidis 19-11 assessed as inhibition of visible bacterial growth incubated for 18 hrs by broth microdilution method; format: functional
[21] = test system: Staphylococcus epidermidis; assay: Potency index, ratio of telithromycin MIC to test compound MIC for antibacterial activity against erythromycin-resistant Staphylococcus epidermidis 19-9 assessed as inhibition of visible bacterial growth incubated for 18 hrs by broth microdilution method; format: functional
[22] = test system: Staphylococcus epidermidis; assay: Potency index, ratio of telithromycin MIC to test compound MIC for antibacterial activity against erythromycin-resistant Staphylococcus epidermidis 19-8 assessed as inhibition of visible bacterial growth incubated for 18 hrs by broth microdilution method; format: functional
[23] = test system: Staphylococcus epidermidis; assay: Potency index, ratio of telithromycin MIC to test compound MIC for antibacterial activity against erythromycin-resistant Staphylococcus epidermidis 19-6 assessed as inhibition of visible bacterial growth incubated for 18 hrs by broth microdilution method; format: functional
[24] = test system: Staphylococcus epidermidis; assay: Potency index, ratio of telithromycin MIC to test compound MIC for antibacterial activity against erythromycin-resistant Staphylococcus epidermidis 19-5 assessed as inhibition of visible bacterial growth incubated for 18 hrs by broth microdilution method; format: functional
[25] = test system: Staphylococcus epidermidis; assay: Potency index, ratio of telithromycin MIC to test compound MIC for antibacterial activity against erythromycin-resistant Staphylococcus epidermidis 19-4 assessed as inhibition of visible bacterial growth incubated for 18 hrs by broth microdilution method; format: functional
Streptococcus pneumoniae [26] = assay: Potency index, ratio of telithromycin MIC to test compound MIC for antibacterial activity against Streptococcus pneumoniae SPN19-14 assessed as inhibition of visible bacterial growth incubated for 18 hrs by broth microdilution method; format: functional
Staphylococcus aureus = assay: Antibacterial activity against Staphylococcus aureus ATCC 700699 assessed as inhibition of visible bacterial growth; format: functional
Enterococcus faecium = assay: Antibacterial activity against vancomycin-resistant Enterococcus faecium assessed as inhibition of visible bacterial growth; format: functional

| Structure (SMILES) | MIC (Streptococcus pyogenes) [µg/mL] | MIC (Streptococcus agalactiae [1]) [µg/mL] | MIC (Streptococcus agalactiae [2]) [µg/mL] | MIC (Streptococcus pneumoniae [3]) [µg/mL] | MIC (Streptococcus pneumoniae [4]) [µg/mL] | MIC (Streptococcus pneumoniae [5]) [µg/mL] | MIC [6] [µg/mL] | MIC [7] [µg/mL] | MIC [8] [µg/mL] | MIC [9] [µg/mL] | MIC [10] [µg/mL] | MIC [11] [µg/mL] | MIC (Moraxella catarrhalis [12]) [µg/mL] | MIC (Moraxella catarrhalis [13]) [µg/mL] | MIC (Moraxella catarrhalis [14]) [µg/mL] | MIC (Haemophilus influenzae [15]) [µg/mL] | MIC (Haemophilus influenzae [16]) [µg/mL] | Activity (Escherichia coli) | CC50 at 48 h [17] [µM] | Ratio (Streptococcus pneumoniae [18]) | other results |
| --- | --- | --- | --- | --- | --- | --- | --- | --- | --- | --- | --- | --- | --- | --- | --- | --- | --- | --- | --- | --- | --- |
| CC[C@H]1OC(=O)[C@@](C)(F)C(=O)[C@H](C)[C@@H](O[C@@H]2O[C@H](C)C[C@H](N(C)C)[C@H]2O)[C@](C)(OC)C[C@@H](C)C(=O)[C@H](C)[C@H]2N(CCCOC(=O)Nc3ccccc3[N+](=O)[O-])C(=O)O[C@]12C | < 0.03 | 4 (≈ 4.69 µM) | < 0.03 | 0.25 (≈ 0.293 µM) | 0.25 (≈ 0.293 µM) | 1 (≈ 1.17 µM) | 0.125 (≈ 0.147 µM) | 0.25 (≈ 0.293 µM) | 0.125 (≈ 0.147 µM) | 0.125 (≈ 0.147 µM) | 0.125 (≈ 0.147 µM) | 0.125 (≈ 0.147 µM) | 0.5 (≈ 0.586 µM) | 0.5 (≈ 0.586 µM) | 0.125 (≈ 0.147 µM) | 8 (≈ 9.38 µM) | 8 (≈ 9.38 µM) | Active | 27.4 | – | – |
| CC[C@H]1OC(=O)[C@@](C)(F)C(=O)[C@H](C)[C@@H](O[C@@H]2O[C@H](C)C[C@H](N(C)C)[C@H]2O)[C@](C)(OC)C[C@@H](C)C(=O)[C@H](C)[C@H]2N(CCCOC(=O)Nc3cccc(F)c3)C(=O)O[C@]12C | < 0.03 | 0.06 (≈ 0.0726 µM) | < 0.03 | < 0.03 | < 0.03 | < 0.03 | < 0.03 | < 0.03 | < 0.03 | < 0.03 | < 0.03 | < 0.03 | < 0.03 | < 0.03 | < 3 | 8 (≈ 9.69 µM) | 4 (≈ 4.84 µM) | Active | 33.7 | <4 | Ratio (Streptococcus pneumoniae [19]): <4; Ratio [20]: 4; Ratio [21]: 4; Ratio [22]: 4; Ratio [23]: 4; Ratio [24]: 4; Ratio [25]: 4; Ratio (Streptococcus pneumoniae [26]): <4 |
| CC[C@H]1OC(=O)[C@H](C)C(=O)[C@H](C)[C@@H](O[C@@H]2O[C@H](C)C[C@H](N(C)C)[C@H]2O)[C@](C)(OC)C[C@@H](C)C(=O)[C@H](C)[C@H]2N(CCCCn3cnc(-c4cccnc4)c3)C(=O)O[C@]12C [TELITHROMYCIN] | < 0.03 | 0.125 (≈ 0.154 µM) | < 0.03 | 0.25 (≈ 0.308 µM) | 0.25 (≈ 0.308 µM) | 0.5 (≈ 0.616 µM) | 0.25 (≈ 0.308 µM) | 0.5 (≈ 0.616 µM) | > 64 | 64 (≈ 78.8 µM) | > 64 | 0.25 (≈ 0.308 µM) | 0.25 (≈ 0.308 µM) | 0.25 (≈ 0.308 µM) | 0.25 (≈ 0.308 µM) | 4 (≈ 4.93 µM) | 4 (≈ 4.93 µM) | – | > 100 | – | MIC (Staphylococcus aureus): 16 µg/mL (≈ 19.7 µM) |
| CC[C@H]1OC(=O)[C@@](C)(F)C(=O)[C@H](C)[C@@H](O[C@@H]2O[C@H](C)C[C@H](N(C)C)[C@H]2O)[C@](C)(OC)C[C@@H](C)C(=O)[C@H](C)[C@H]2N(CCCOC(=O)Nc3cccc4ccccc34)C(=O)O[C@]12C | < 0.03 | < 0.03 | < 0.03 | < 0.03 | < 0.03 | < 0.03 | < 0.03 | 0.125 (≈ 0.146 µM) | < 0.03 | < 0.03 | < 0.03 | < 0.03 | < 0.03 | < 0.03 | < 0.03 | 4 (≈ 4.66 µM) | 4 (≈ 4.66 µM) | Active | 29.4 | <4 | Ratio (Streptococcus pneumoniae [19]): <4; Ratio [20]: 4; Ratio [21]: 4; Ratio [22]: 4; Ratio [23]: 4; Ratio [24]: 4; Ratio [25]: 4; Ratio (Streptococcus pneumoniae [26]): <4; MIC (Enterococcus faecium): 16 µg/mL (≈ 18.6 µM) |
